Patent publication US20250353853A1, “FLAVIVIRUS INHIBITORS” (IRBM S.P.A., priority 2022, published 2025)
Read-outs that look alike come from different tables or passages of the source.

What was measured:
[1] = tested on: ZIKV replicon in Vero cells; assay: ZIKV Replication Inhibition Assay (replicon, NanoLuc); conditions: Zika virus, Vero, 72 h, read-out: Zika Replicon EC50
[2] = target: West Nile Virus (WNV) NS2B-NS3 protease (West Nile virus (WNV), UniProt P06935); assay: WNV Protease Inhibition Assay; format: biochemical
West Nile Virus (WNV) NS2B-NS3 protease, sequence (P06935 1502-1679 limits assumed): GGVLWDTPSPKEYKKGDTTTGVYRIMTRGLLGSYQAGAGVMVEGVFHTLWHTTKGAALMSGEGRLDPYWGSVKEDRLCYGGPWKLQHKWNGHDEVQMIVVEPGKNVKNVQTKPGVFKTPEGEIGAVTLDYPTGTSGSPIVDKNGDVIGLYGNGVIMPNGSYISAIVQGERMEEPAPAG
West Nile Virus (WNV) NS2B-NS3 protease, sequence (P06935 1371-1501 partner limits assumed): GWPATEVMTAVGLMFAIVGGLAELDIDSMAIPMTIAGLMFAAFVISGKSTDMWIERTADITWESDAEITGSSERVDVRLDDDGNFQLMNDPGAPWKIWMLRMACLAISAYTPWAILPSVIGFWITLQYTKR
Source text: WNV Protease Inhibition Assay

[3] = 2 nM protease, 10 μM pERTKR-AMC substrate, read-out: WNV Protease IC50

Structure (SMILES) | EC50 [1] | IC50 [2, 3] | IC50 [2]
Cc1nn(C)c(C)c1-c1ccc(C[n+]2cc([N-]C(=O)Nc3cncc(C(F)(F)F)c3)on2)nc1 [Example 147, ((5-(trifluoromethyl)pyridin-3-yl)carbamoyl)(3-((5-(1,3,5-trimethyl-1H-pyrazol-4-yl)pyridin-2-yl)methyl)-1,2,3-oxadiazol-3-ium-5-yl)amide] | 100 to 1000 nM | < 100 nM | 
N#Cc1ncncc1-c1ccc(C[n+]2cc([N-]C(=O)Nc3cccc(C(F)(F)F)c3)on2)nc1 [Example 148, (3-((5-(4-cyanopyrimidin-5-yl)pyridin-2-yl)methyl)-1,2,3-oxadiazol-3-ium-5-yl)((3-(trifluoromethyl)phenyl)carbamoyl)amide] | 100 to 1000 nM | < 100 nM | 
Cc1ccncc1-c1ccc(C[n+]2cc([N-]C(=O)Nc3cncc(C(F)(F)F)c3)on2)nc1 [Example 149, (3-((4′-methyl-[3,3′-bipyridin]-6-yl)methyl)-1,2,3-oxadiazol-3-ium-5-yl)((5-(trifluoromethyl)pyridin-3-yl)carbamoyl)amide] | 100 to 1000 nM |  | 100 to 1000 nM
Cc1noc(C)c1-c1ccc(C[n+]2cc([N-]C(=O)Nc3ccc(F)c(C(F)(F)F)c3)on2)nc1 [Example 150, (3-((5-(3,5-dimethylisoxazol-4-yl)pyridin-2-yl)methyl)-1,2,3-oxadiazol-3-ium-5-yl)((4-fluoro-3-(trifluoromethyl)phenyl)carbamoyl)amide] | < 100 nM |  | 100 to 1000 nM
Cc1n[nH]c(C)c1-c1ccc(C[n+]2cc([N-]C(=O)Nc3cccc(C(F)(F)F)c3)on2)nc1 [Example 151, (3-((5-(3,5-dimethyl-1H-pyrazol-4-yl)pyridin-2-yl)methyl)-1,2,3-oxadiazol-3-ium-5-yl)((3-(trifluoromethyl)phenyl)carbamoyl)amide] | 100 to 1000 nM |  | 100 to 1000 nM
Cc1noc(C)c1-c1ccc(C[n+]2cc([N-]C(=O)Nc3ccnc(C(F)(F)F)c3)on2)nc1 [Example 152, (3-((5-(3,5-dimethylisoxazol-4-yl)pyridin-2-yl)methyl)-1,2,3-oxadiazol-3-ium-5-yl)((2-(trifluoromethyl)pyridin-4-yl)carbamoyl)amide] | < 100 nM | < 100 nM | 
Cc1noc(C)c1-c1ccc(C[n+]2cc([N-]C(=O)Nc3cc(F)cc(C(F)(F)F)c3)on2)nc1 [Example 153, (3-((5-(3,5-dimethylisoxazol-4-yl)pyridin-2-yl)methyl)-1,2,3-oxadiazol-3-ium-5-yl)((3-fluoro-5-(trifluoromethyl)phenyl)carbamoyl)amide] | < 100 nM |  | 100 to 1000 nM
Cc1noc(C)c1-c1ccc(C[n+]2cc([N-]C(=O)Nc3cnc(C(F)(F)F)s3)on2)nc1 [Example 154, (3-((5-(3,5-dimethylisoxazol-4-yl)pyridin-2-yl)methyl)-1,2,3-oxadiazol-3-ium-5-yl)((2-(trifluoromethyl)thiazol-5-yl)carbamoyl)amide] | 100 to 1000 nM |  | 100 to 1000 nM
O=C([N-]c1c[n+](Cc2ccc(-c3cncnc3C3CC3)cn2)no1)Nc1cccc(C(F)(F)F)c1 [Example 155, (3-((5-(4-cyclopropylpyrimidin-5-yl)pyridin-2-yl)methyl)-1,2,3-oxadiazol-3-ium-5-yl)((3-(trifluoromethyl)phenyl)carbamoyl)amide] | 100 to 1000 nM |  | 100 to 1000 nM
Cc1cc(NC(=O)[N-]c2c[n+](Cc3ccc(-c4c(C)noc4C)cn3)no2)cc(C(F)(F)F)c1 [Example 156, (3-((5-(3,5-dimethylisoxazol-4-yl)pyridin-2-yl)methyl)-1,2,3-oxadiazol-3-ium-5-yl)((3-methyl-5-(trifluoromethyl)phenyl)carbamoyl)amide] | 100 to 1000 nM |  | 1000 to 20000 nM
Cc1noc(C)c1-c1ccc(C[n+]2cc([N-]C(=O)Nc3ccc(Cl)c(C(F)(F)F)c3)on2)nc1 [Example 157, ((4-chloro-3-(trifluoromethyl)phenyl)carbamoyl)(3-((5-(3,5-dimethylisoxazol-4-yl)pyridin-2-yl)methyl)-1,2,3-oxadiazol-3-ium-5-yl)amide] | 100 to 1000 nM |  | 1000 to 20000 nM
Cc1ccc(NC(=O)[N-]c2c[n+](Cc3ccc(-c4c(C)noc4C)cn3)no2)cc1C(F)(F)F [Example 158, (3-((5-(3,5-dimethylisoxazol-4-yl)pyridin-2-yl)methyl)-1,2,3-oxadiazol-3-ium-5-yl)((4-methyl-3-(trifluoromethyl)phenyl)carbamoyl)amide] | < 100 nM |  | 100 to 1000 nM
COc1nccc(C)c1-c1ccc(C[n+]2cc([N-]C(=O)Nc3cccc(C(F)(F)F)c3)on2)nc1 [Example 159, (3-((2′-methoxy-4′-methyl-[3,3′-bipyridin]-6-yl)methyl)-1,2,3-oxadiazol-3-ium-5-yl)((3-(trifluoromethyl)phenyl)carbamoyl)amide] | < 100 nM |  | 100 to 1000 nM
O=C([N-]c1c[n+](Cc2ccc(-c3ccnnc3)cn2)no1)Nc1cccc(C(F)(F)F)c1 [Example 160, (3-((5-(pyridazin-4-yl)pyridin-2-yl)methyl)-1,2,3-oxadiazol-3-ium-5-yl)((3-(trifluoromethyl)phenyl)carbamoyl)amide] | 100 to 1000 nM | < 100 nM | 
Cc1noc(C)c1-c1ccc(C[n+]2cc([N-]C(=O)Nc3cccc(C(F)(F)F)n3)on2)nc1 [Example 161, (3-((5-(3,5-dimethylisoxazol-4-yl)pyridin-2-yl)methyl)-1,2,3-oxadiazol-3-ium-5-yl)((6-(trifluoromethyl)pyridin-2-yl)carbamoyl)amide] | 1000 to 20000 nM |  | 1000 to 20000 nM
Cc1ccnnc1-c1ccc(C[n+]2cc([N-]C(=O)Nc3cccc(C(F)(F)F)c3)on2)nc1 [Example 162, (3-((5-(4-methylpyridazin-3-yl)pyridin-2-yl)methyl)-1,2,3-oxadiazol-3-ium-5-yl)((3-(trifluoromethyl)phenyl)carbamoyl)amide] | < 100 nM | < 100 nM | 
Cc1cnccc1-c1ccc(C[n+]2cc([N-]C(=O)Nc3cccc(C(F)(F)F)c3)on2)nc1 [Example 163, (3-((3′-methyl-[3,4′-bipyridin]-6-yl)methyl)-1,2,3-oxadiazol-3-ium-5-yl)((3-(trifluoromethyl)phenyl)carbamoyl)amide] | < 100 nM |  | 100 to 1000 nM
O=C([N-]c1c[n+](Cc2ccc(-c3ccncc3F)cn2)no1)Nc1cccc(C(F)(F)F)c1 [Example 164, (3-((3′-fluoro-[3,4′-bipyridin]-6-yl)methyl)-1,2,3-oxadiazol-3-ium-5-yl)((3-(trifluoromethyl)phenyl)carbamoyl)amide] | < 100 nM |  | 100 to 1000 nM
Cc1cnn(C)c1-c1ccc(C[n+]2cc([N-]C(=O)Nc3cccc(C(F)(F)F)c3)on2)nc1 [Example 165, (3-((5-(1,4-dimethyl-1H-pyrazol-5-yl)pyridin-2-yl)methyl)-1,2,3-oxadiazol-3-ium-5-yl)((3-(trifluoromethyl)phenyl)carbamoyl)amide] | < 100 nM |  | 100 to 1000 nM
Cc1noc(C)c1-c1ccc(C[n+]2cc([N-]C(=O)Nc3ncc(C(F)(F)F)s3)on2)nc1 [Example 166, (3-((5-(3,5-dimethylisoxazol-4-yl)pyridin-2-yl)methyl)-1,2,3-oxadiazol-3-ium-5-yl)((5-(trifluoromethyl)thiazol-2-yl)carbamoyl)amide] | < 100 nM |  | 100 to 1000 nM
Cc1noc(C)c1-c1cnc(C[n+]2cc([N-]C(=O)Nc3cccc(C(F)(F)F)c3)on2)nc1 [Example 167, (3-((5-(3,5-dimethylisoxazol-4-yl)pyrimidin-2-yl)methyl)-1,2,3-oxadiazol-3-ium-5-yl)((3-(trifluoromethyl)phenyl)carbamoyl)amide] | < 100 nM |  | 100 to 1000 nM
Cc1noc(C)c1-c1ccc(C[n+]2cc([N-]C(=O)Nc3cccc(C(F)F)c3)on2)nc1 [Example 168, ((3-(difluoromethyl)phenyl)carbamoyl)(3-((5-(3,5-dimethylisoxazol-4-yl)pyridin-2-yl)methyl)-1,2,3-oxadiazol-3-ium-5-yl)amide] | 100 to 1000 nM |  | 100 to 1000 nM
O=C([N-]c1c[n+](Cc2ccc(-c3c(F)cncc3F)cn2)no1)Nc1cccc(C(F)(F)F)c1 [Example 170, (3-((3′,5′-difluoro-[3,4′-bipyridin]-6-yl)methyl)-1,2,3-oxadiazol-3-ium-5-yl)((3-(trifluoromethyl)phenyl)carbamoyl)amide] | < 100 nM |  | 100 to 1000 nM
O=C([N-]c1c[n+](Cc2ccc(-c3cccnc3Cl)cn2)no1)Nc1cccc(C(F)(F)F)c1 [Example 172, (3-((2′-chloro-[3,3′-bipyridin]-6-yl)methyl)-1,2,3-oxadiazol-3-ium-5-yl)((3-(trifluoromethyl)phenyl)carbamoyl)amide] | < 100 nM |  | 100 to 1000 nM
Cc1noc(C)c1-c1ccc(C[n+]2cc([N-]C(=O)Nc3cccc(C(F)(F)F)c3)on2)nn1 [Example 173, (3-((6-(3,5-dimethylisoxazol-4-yl)pyridazin-3-yl)methyl)-1,2,3-oxadiazol-3-ium-5-yl)((3-(trifluoromethyl)phenyl)carbamoyl)amide] | < 100 nM | < 100 nM | 
Cc1cnn(C)c1-c1ccc(C[n+]2cc([N-]C(=O)Nc3ccnc(C(F)(F)F)c3)on2)nc1 [Example 175, (3-((5-(1,4-dimethyl-1H-pyrazol-5-yl)pyridin-2-yl)methyl)-1,2,3-oxadiazol-3-ium-5-yl)((2-(trifluoromethyl)pyridin-4-yl)carbamoyl)amide] | < 100 nM | < 100 nM | 
Cc1ncnc(C)c1-c1ccc(C[n+]2cc([N-]C(=O)Nc3ccnc(C(F)(F)F)c3)on2)nc1 [Example 176, (3-((5-(4,6-dimethylpyrimidin-5-yl)pyridin-2-yl)methyl)-1,2,3-oxadiazol-3-ium-5-yl)((2-(trifluoromethyl)pyridin-4-yl)carbamoyl)amide] | 100 to 1000 nM | < 100 nM | 
